Key:
MDR1 [1] = assay: Apparent permeability of the compound from apical to basolateral direction in MDCK2 cells expressing MDR1; assay type: ADME, cell-based, Canis lupus familiaris, MDCK-II; details: dog, MDCK-MDR1
[2] = target: Mitogen-activated protein kinase 8 (Homo sapiens, UniProt P45983); assay: Inhibition of recombinant JNK1 after 60 mins by TR-FRET assay
[3] = test system: RAF proto-oncogene serine/threonine-protein kinase (Homo sapiens), P04049 [Y340D,Y341D]; assay: Inhibition of RAF1 Y340D, Y341D mutant at 10 uM
[4] = target: T1, Mitogen-activated protein kinase 1 (Homo sapiens, UniProt P28482); assay: Inhibition of MAPK1 at 10 uM
T1 sequence (P28482 whole entry): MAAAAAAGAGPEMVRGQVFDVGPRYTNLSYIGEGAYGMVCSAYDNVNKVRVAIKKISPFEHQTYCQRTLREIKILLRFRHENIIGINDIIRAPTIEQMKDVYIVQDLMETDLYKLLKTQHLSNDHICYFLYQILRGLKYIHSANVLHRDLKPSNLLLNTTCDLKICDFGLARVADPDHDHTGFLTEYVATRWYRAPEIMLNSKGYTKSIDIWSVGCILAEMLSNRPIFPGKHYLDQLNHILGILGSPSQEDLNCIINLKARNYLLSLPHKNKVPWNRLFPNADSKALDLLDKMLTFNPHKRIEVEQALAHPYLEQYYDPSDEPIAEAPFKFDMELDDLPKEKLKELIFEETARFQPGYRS

[5] = target: Receptor-interacting serine/threonine-protein kinase 2 (Homo sapiens) (UniProt O43353); assay: Inhibition of RIPK2 at 10 uM
[6] = target: Cyclin-dependent kinase 2/cyclin A (Homo sapiens) (UniProt P24941+P20248+P78396); assay: Inhibition of CDK2/cyclin A at 10 uM; assay type: protein-complex assay
[7] = target: Protein-tyrosine kinase 2-beta (Homo sapiens) (UniProt Q14289); assay: Inhibition of PTK2B at 10 uM
Chain of Protein-tyrosine kinase 2-beta (Homo sapiens) (Q14289 whole entry, looked up): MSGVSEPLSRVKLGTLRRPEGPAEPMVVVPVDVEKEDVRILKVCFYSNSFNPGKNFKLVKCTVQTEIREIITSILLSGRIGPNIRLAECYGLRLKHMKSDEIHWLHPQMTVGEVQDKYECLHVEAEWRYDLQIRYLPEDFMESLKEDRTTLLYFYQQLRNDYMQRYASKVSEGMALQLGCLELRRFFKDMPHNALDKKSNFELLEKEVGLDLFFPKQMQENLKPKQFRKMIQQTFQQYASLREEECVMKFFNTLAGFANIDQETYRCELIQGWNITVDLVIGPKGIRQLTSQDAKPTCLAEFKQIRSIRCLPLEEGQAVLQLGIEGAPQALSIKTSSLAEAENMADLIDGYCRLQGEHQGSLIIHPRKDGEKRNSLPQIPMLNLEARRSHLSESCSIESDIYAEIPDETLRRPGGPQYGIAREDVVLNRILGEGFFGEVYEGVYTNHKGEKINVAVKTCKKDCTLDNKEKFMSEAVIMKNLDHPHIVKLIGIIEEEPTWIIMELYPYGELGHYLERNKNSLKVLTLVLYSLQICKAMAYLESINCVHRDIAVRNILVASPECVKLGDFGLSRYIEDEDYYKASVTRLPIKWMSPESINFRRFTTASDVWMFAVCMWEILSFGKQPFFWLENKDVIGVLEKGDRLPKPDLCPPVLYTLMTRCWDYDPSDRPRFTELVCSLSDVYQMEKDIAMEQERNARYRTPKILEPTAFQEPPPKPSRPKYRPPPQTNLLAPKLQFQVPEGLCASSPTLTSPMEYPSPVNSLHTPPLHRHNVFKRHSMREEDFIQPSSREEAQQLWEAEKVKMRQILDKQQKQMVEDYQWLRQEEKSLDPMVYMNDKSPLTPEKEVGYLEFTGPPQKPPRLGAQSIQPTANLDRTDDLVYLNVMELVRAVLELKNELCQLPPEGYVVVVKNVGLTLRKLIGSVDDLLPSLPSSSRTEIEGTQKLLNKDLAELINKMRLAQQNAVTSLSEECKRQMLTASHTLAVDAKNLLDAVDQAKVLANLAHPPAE

[8] = target: Serine/threonine-protein kinase PAK 4 (Homo sapiens) (UniProt O96013); assay: Inhibition of PAK4 at 10 uM
[9] = target: Serine/threonine-protein kinase PLK3 (Homo sapiens) (UniProt Q9H4B4); assay: Inhibition of PLK3 at 10 uM
[10] = target: Proto-oncogene tyrosine-protein kinase receptor Ret (Homo sapiens) (UniProt P07949); assay: Inhibition of RET at 10 uM
[11] = target: Dual specificity tyrosine-phosphorylation-regulated kinase 1B (Homo sapiens) (UniProt Q9Y463); assay: Inhibition of DYRK1B at 10 uM
[12] = target: Receptor-type tyrosine-protein kinase FLT3 (Homo sapiens) (UniProt P36888); assay: Inhibition of FLT3 at 10 uM
[13] = target: Rho-associated protein kinase 2 (Homo sapiens) (UniProt O75116); assay: Inhibition of ROCK2 at 10 uM
[14] = target: Serine/threonine-protein kinase Chk1 (Homo sapiens) (UniProt O14757); assay: Inhibition of CHEK1 at 10 uM
[15] = target: Dual specificity protein kinase CLK1 (Homo sapiens) (UniProt P49759); assay: Inhibition of CLK1 at 10 uM
[16] = target: Mitogen-activated protein kinase 14 (Homo sapiens, UniProt Q16539); assay: Inhibition of recombinant p38alpha after 60 mins by TR-FRET assay
[17] = target: Calcium/calmodulin-dependent protein kinase type II subunit alpha (Homo sapiens) (UniProt Q9UQM7); assay: Inhibition of CAMK2A at 10 uM
[18] = target: Cyclin-dependent kinase 5/CDK5 activator 1 (Homo sapiens) (UniProt Q00535+Q15078); assay: Inhibition of CDK5/p25 at 10 uM; assay type: protein-complex assay
[19] = target: Tyrosine-protein kinase ABL1 (Homo sapiens) (UniProt P00519); assay: Inhibition of ABL1 at 10 uM
[20] = target: Serine/threonine-protein kinase PLK1 (Homo sapiens) (UniProt P53350); assay: Inhibition of PLK1 at 10 uM
[21] = target: Serine/threonine-protein kinase 16 (Homo sapiens) (UniProt O75716); assay: Inhibition of STK16 at 10 uM
[22] = Oxidative metabolic stability in human liver microsomes assessed as compound remaining at 5 uM after 120 mins; assay type: ADME, Microsome; details: read-out: Stability
MDR1 [23] = assay: Efflux ratio of permeability from basolateral to apical side over apical to basolateral side in MDCK2 cells expressing MDR1; assay type: ADME, cell-based, Canis lupus familiaris, MDCK-II; details: dog, MDCK-MDR1
[24] = target: RAC-alpha serine/threonine-protein kinase (Homo sapiens) (UniProt P31749); assay: Inhibition of AKT1 at 10 uM
Chain of RAC-alpha serine/threonine-protein kinase (Homo sapiens) (P31749 whole entry): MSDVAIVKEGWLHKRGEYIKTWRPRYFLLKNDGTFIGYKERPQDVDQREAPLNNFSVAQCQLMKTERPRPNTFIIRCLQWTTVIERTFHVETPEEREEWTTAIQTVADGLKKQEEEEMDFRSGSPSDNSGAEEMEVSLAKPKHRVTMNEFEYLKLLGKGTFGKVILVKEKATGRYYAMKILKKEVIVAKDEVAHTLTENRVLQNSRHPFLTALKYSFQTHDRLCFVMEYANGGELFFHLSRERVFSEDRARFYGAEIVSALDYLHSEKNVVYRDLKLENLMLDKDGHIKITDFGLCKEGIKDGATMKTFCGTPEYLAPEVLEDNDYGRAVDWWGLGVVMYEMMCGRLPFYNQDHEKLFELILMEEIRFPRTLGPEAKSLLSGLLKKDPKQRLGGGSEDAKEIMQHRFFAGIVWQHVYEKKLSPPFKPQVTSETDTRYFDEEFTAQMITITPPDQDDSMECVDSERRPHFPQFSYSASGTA

[25] = target: Tyrosine-protein kinase JAK1 (Homo sapiens) (UniProt P23458); assay: Inhibition of JAK1 at 10 uM
[26] = target: Leucine-rich repeat serine/threonine-protein kinase 2 (Homo sapiens) (UniProt Q5S007); assay: Inhibition of LRRK2 at 10 uM
[27] = target: Aurora kinase A (Homo sapiens) (UniProt O14965); assay: Inhibition of Aurora A at 10 uM
[28] = target: Serine/threonine-protein kinase PLK2 (Homo sapiens) (UniProt Q9NYY3); assay: Inhibition of PLK2 at 10 uM
[29] = target: Cyclin-dependent kinase 1/cyclin B (Homo sapiens) (UniProt P06493+P14635+Q8WWL7+O95067); assay: Inhibition of CDK1/cyclin B at 10 uM; assay type: protein-complex assay
Mus musculus = assay: Inhibition of kainic acid-induced JNK activation in FVB mouse hippocampus assessed as reduction of phosphorylated c-jun level at 300 mg/kg, po administered 1 hr before kainic acid challenge measured after 4 hrs; assay type: functional
[30] = target: Insulin receptor (Homo sapiens) (UniProt P06213); assay: Inhibition of INSR at 10 uM
Chain of Insulin receptor (Homo sapiens) (P06213 28-758 limits assumed): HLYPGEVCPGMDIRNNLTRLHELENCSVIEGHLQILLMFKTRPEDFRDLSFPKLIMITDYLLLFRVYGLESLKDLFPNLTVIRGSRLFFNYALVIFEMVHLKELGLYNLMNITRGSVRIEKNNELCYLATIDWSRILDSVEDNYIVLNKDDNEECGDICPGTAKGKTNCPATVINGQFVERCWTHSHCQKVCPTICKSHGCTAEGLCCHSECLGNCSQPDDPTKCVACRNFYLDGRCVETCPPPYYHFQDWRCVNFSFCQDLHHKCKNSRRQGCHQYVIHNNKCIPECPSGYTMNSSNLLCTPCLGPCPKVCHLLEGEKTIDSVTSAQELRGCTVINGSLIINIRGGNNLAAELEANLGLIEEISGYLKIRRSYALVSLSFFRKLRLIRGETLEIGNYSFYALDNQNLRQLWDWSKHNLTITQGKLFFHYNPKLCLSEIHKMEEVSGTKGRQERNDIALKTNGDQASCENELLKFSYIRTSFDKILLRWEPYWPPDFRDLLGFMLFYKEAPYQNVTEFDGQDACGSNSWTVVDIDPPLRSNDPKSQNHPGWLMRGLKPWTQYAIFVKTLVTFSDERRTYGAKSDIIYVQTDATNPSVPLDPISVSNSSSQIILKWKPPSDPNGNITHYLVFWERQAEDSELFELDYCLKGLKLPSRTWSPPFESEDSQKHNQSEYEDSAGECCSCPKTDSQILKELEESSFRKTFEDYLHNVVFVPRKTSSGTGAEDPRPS
Chain of Insulin receptor (Homo sapiens) (P06213 763-1382 limits assumed): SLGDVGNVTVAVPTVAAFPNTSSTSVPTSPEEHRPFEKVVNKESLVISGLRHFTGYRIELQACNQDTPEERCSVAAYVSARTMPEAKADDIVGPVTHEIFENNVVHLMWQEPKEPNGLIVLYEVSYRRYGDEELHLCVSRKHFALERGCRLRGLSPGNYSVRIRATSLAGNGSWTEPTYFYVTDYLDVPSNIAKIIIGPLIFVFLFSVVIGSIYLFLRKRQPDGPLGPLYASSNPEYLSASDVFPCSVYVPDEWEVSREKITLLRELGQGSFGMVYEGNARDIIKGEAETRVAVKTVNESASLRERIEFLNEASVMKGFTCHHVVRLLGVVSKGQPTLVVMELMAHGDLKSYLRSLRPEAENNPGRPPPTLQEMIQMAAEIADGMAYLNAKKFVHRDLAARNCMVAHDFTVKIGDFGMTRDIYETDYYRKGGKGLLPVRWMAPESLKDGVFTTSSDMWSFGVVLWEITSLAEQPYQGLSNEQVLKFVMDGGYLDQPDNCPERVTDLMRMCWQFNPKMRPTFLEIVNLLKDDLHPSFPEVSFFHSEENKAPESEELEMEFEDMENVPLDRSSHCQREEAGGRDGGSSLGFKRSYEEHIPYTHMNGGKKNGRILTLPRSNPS

[31] = target: T2, Mitogen-activated protein kinase 10 (Homo sapiens, UniProt P53779); assay: Inhibition of recombinant JNK3 after 60 mins by TR-FRET assay
T2 sequence (P53779 whole entry): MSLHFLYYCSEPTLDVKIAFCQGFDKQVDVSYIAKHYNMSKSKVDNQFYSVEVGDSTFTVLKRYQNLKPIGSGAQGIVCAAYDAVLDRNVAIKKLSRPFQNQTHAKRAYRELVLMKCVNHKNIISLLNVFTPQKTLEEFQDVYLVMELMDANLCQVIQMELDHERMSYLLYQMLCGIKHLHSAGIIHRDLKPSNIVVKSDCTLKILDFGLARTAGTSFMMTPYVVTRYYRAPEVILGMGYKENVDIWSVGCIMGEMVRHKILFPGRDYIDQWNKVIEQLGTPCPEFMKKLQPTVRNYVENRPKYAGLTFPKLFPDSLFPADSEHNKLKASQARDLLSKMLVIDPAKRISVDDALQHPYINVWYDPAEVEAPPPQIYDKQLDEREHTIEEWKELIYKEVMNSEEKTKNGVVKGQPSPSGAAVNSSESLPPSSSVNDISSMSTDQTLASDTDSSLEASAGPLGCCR

[32] = target: Tyrosine-protein kinase SYK (Homo sapiens) (UniProt P43405); assay: Inhibition of SYK at 10 uM
[33] = target: Protein kinase C beta type (Homo sapiens) (UniProt P05771); assay: Inhibition of PRKCB1 at 10 uM
[34] = target: Macrophage colony-stimulating factor 1 receptor (Homo sapiens) (UniProt P07333); assay: Inhibition of CSF1R at 10 uM
[35] = target: Receptor tyrosine-protein kinase erbB-4 (Homo sapiens) (UniProt Q15303); assay: Inhibition of ERBB4 at 10 uM
[36] = target: cAMP-dependent protein kinase catalytic subunit alpha (Homo sapiens) (UniProt P17612); assay: Inhibition of PRKACA at 10 uM
[37] = target: Dual specificity protein kinase TTK (Homo sapiens) (UniProt P33981); assay: Inhibition of TTK at 10 uM
[38] = Oxidative metabolic stability in mouse liver microsomes assessed as compound remaining at 5 uM after 120 mins; assay type: ADME, Microsome; details: read-out: Stability
[39] = target: Tyrosine-protein kinase Lck (Homo sapiens) (UniProt P06239); assay: Inhibition of LCK at 10 uM
[40] = target: Serine/threonine-protein kinase MARK2 (Homo sapiens) (UniProt Q7KZI7); assay: Inhibition of MARK2 at 10 uM
[41] = target: Serine/threonine-protein kinase 3 (Homo sapiens) (UniProt Q13188); assay: Inhibition of STK3 at 10 uM
Chain of Serine/threonine-protein kinase 3 (Homo sapiens) (Q13188 whole entry): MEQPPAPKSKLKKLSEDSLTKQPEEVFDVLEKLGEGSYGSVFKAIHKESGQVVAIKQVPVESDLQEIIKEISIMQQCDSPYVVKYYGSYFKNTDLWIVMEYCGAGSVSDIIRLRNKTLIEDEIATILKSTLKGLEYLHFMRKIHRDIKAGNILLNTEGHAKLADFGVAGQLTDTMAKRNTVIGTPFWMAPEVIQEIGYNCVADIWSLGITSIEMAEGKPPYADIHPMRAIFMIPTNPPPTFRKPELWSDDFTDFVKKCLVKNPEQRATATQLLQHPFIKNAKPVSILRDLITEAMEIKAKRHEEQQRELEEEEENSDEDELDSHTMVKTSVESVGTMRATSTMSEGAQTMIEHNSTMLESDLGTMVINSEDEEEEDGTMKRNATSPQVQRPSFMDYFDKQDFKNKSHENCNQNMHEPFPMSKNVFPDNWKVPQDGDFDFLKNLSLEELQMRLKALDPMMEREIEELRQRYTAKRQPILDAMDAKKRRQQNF

[42] = target: Glycogen synthase kinase-3 beta (Homo sapiens) (UniProt P49841); assay: Inhibition of GSK3B at 10 uM
Chain of Glycogen synthase kinase-3 beta (Homo sapiens) (P49841 whole entry, looked up): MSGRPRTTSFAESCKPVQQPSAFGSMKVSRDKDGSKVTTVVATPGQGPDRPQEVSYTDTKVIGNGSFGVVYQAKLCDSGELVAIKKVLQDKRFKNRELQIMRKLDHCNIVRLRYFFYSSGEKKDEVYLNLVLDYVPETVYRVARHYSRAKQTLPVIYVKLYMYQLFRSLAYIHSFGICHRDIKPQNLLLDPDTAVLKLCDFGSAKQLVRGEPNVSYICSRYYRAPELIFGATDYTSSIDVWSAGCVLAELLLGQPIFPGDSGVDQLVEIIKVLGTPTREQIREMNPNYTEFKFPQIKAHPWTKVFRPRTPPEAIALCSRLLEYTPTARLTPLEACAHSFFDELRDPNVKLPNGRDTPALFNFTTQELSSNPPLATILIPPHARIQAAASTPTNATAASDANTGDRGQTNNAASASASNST

[43] = target: Mitogen-activated protein kinase 9 (Homo sapiens, UniProt P45984); assay: Inhibition of recombinant JNK2 after 60 mins by TR-FRET assay
Chain of Mitogen-activated protein kinase 9 (P45984 whole entry): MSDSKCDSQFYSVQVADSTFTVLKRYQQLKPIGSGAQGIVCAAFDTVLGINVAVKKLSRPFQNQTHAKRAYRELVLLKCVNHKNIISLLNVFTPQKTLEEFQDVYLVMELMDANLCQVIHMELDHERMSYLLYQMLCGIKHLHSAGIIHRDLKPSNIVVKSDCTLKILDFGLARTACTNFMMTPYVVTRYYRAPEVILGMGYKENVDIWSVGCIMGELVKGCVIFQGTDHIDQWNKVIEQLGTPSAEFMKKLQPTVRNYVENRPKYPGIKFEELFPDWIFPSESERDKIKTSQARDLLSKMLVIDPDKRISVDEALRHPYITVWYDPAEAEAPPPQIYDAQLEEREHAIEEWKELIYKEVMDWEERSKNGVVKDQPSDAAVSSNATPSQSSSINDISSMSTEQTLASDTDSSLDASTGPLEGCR

[44] = target: T2, Mitogen-activated protein kinase 10; details: 10 uM
Description: Inhibition of MAPK10 at 10 uM

[45] = target: T1, Mitogen-activated protein kinase 1; assay: Inhibition of recombinant ERK2 after 60 mins by TR-FRET assay
[46] = target: PI3-kinase p110-alpha/p85-alpha (Homo sapiens) (UniProt P27986+P42336); assay: Inhibition of PIK3CA/PIK3R1 at 10 uM; assay type: protein-complex assay
[47] = target: Platelet-derived growth factor receptor alpha (Homo sapiens) (UniProt P16234); assay: Inhibition of PDGFRA at 10 uM

## O=C(Cc1cccc2cnccc12)Nc1scc(Cl)c1-c1ncn[nH]1
MDR1 [1]
  Papp A→B: 27 ×10⁻⁶ cm/s
[2]
  IC50: 0.014 µM
[3]
  inhibition: 19%
[4]
  inhibition: 3%
[5]
  inhibition: 13%
[6]
  inhibition: 19%
[7]
  inhibition: -5%
[8]
  inhibition: 1%
[9]
  inhibition: -1%
[10]
  inhibition: 16%
[11]
  inhibition: 29%
[12]
  inhibition: 12%
[13]
  inhibition: 9%
[14]
  inhibition: 5%
[15]
  inhibition: 7%
[16]
  IC50: > 50 µM
[17]
  inhibition: 6%
[18]
  inhibition: 19%
[19]
  inhibition: 2%
[20]
  inhibition: 5%
[21]
  inhibition: 29%
[22]
  remaining at 2 h, 5 µM: 50%
MDR1 [23]
  efflux ratio: 1.6
[24]
  inhibition: 4%
[25]
  inhibition: 1%
[26]
  inhibition: 15%
[27]
  inhibition: 31%
[28]
  inhibition: 1%
[29]
  inhibition: 14%
Mus musculus
  inhibition in vivo at 300 mg/kg: 51%
[30]
  inhibition: -2%
[31]
  IC50: 0.011 µM
[32]
  inhibition: 19%
[33]
  inhibition: 3%
[34]
  inhibition: 5%
[35]
  inhibition: -1%
[36]
  inhibition: 3%
[37]
  inhibition: > 50%
[38]
  remaining at 2 h, 5 µM: 29%
[39]
  inhibition: 11%
[40]
  inhibition: 9%
[41]
  inhibition: 3%
[42]
  inhibition: 25%
[43]
  IC50: 0.043 µM
[44]
  inhibition: 96%
[45]
  IC50: > 50 µM
[46]
  inhibition: 13%
[47]
  inhibition: 2%
